Experimental data published in US10336762B2 (priority 2017, dated 2019).
Read-outs that look alike come from different tables or passages of the source.

Experiments:
[1] = system: TNFα; experiment: cells; assay type: cell-based, human; conditions: Homo sapiens, Monocyte, LPS-stimulated human monocytes, read-out: EC50 TNF
[2] = target: IRAK4 enzyme (Homo sapiens (Human), UniProt Q9NWZ3); experiment: biochemical; assay type: biochemical; conditions: IRAK4 enzyme, 500 μM ATP
IRAK4 enzyme, sequence (Q9NWZ3 whole entry): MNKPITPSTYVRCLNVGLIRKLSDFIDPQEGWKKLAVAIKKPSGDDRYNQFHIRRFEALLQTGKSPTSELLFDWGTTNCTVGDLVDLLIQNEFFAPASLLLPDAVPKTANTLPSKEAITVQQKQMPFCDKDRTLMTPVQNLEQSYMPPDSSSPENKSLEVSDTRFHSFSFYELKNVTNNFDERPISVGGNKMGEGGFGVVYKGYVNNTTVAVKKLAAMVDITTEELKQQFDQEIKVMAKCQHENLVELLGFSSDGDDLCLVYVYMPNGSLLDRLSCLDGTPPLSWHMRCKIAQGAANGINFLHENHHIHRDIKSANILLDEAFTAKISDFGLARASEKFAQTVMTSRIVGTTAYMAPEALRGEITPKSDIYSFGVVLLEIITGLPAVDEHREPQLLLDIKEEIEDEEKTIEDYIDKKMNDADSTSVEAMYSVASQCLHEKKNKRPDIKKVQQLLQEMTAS

| SMILES | EC50 ([1]; TNFα content) [nM] | IC50 ([2]; TR-FRET (HTRF)) [nM] | IC50 ([2]; TR-FRET) [nM] | EC50 ([1]; TNFα by TR-FRET) [nM] |
| --- | --- | --- | --- | --- |
| CC(=O)N1CC2(CC(Nc3cc(-c4ccc5cc(C#N)cnn45)ncc3C(=O)NC[C@@H](F)C(C)(C)O)C2)C1 [Example 447, (R)-4-((2-acetyl-2-azaspiro[3.3]heptan-6-yl)amino)-6-(3-cyano-pyrrolo[1,2-b]pyridazin-7-yl)-N-(2-fluoro-3-hydroxy-3-methylbutyl) nicotinamide] | 286 | 5 | – | – |
| CC(=O)NC[C@H]1C[C@H](Nc2cc(-c3ccc4cc(C#N)cnn34)ncc2C(=O)NC[C@@H](F)C(C)(C)O)C1 [Example 544, 4-(((1r,3R)-3-(acetamidomethyl)cyclobutyl)amino)-6-(3-cyanopyrrolo[1,2-b]pyridazin-7-yl)-N-((R)-2-fluoro-3-hydroxy-3-methylbutyl)nicotinamide] | 81 | 1 | – | – |
| CC(C)(O)[C@H](F)CNC(=O)c1cnc(-c2ccc3cc(C#N)cnn23)cc1NC12CCC(NC(=O)OC3COC3)(CC1)CC2 [Example 279, (R)-oxetan-3-yl (4-((2-(3-cyanopyrrolo[1,2-b]pyridazin-7-yl)-5-((2-fluoro-3-hydroxy-3-methylbutyl)carbamoyl)pyridin-4-yl)amino)bicyclo[2.2.2]octan-1-yl)carbamate] | 29 | – | 2 | – |
| COC(=O)NCc1ccc(Nc2cc(-c3ccc4cc(C#N)cnn34)ncc2C(=O)NC[C@@H](F)C(C)(C)O)cc1 [Example 225, (R)-methyl (4-((2-(3-cyano-pyrrolo[1,2-b]pyridazin-7-yl)-5-((2-fluoro-3-hydroxy-3-methylbutyl)carbamoyl)pyridin-4-yl)amino)benzyl)carbamate] | 6 | – | < 1 | – |
| CC(C)(O)[C@H](F)CNC(=O)c1cnc(-c2ccc3cc(C#N)cnn23)cc1NC12CCC(C(=O)N3CCN(C4COC4)CC3)(CC1)CC2 [Example 395, (R)-6-(3-cyanopyrrolo[1,2-b]pyridazin-7-yl)-N-(2-fluoro-3-hydroxy-3-methylbutyl)-4-((4-(4-(oxetan-3-yl)piperazine-1-carbonyl)bicyclo[2.2.2]octan-1-yl)amino) nicotinamide] | 256 | – | 3 | – |
| CC(=O)N[C@@H]1CC[C@@H](Nc2cc(-c3ccc4cc(C#N)cnn34)ncc2C(=O)NC[C@@H](F)C(C)(C)O)C1 [Example 306, 4-(((1R,3R)-3-acetamidocyclopentyl)amino)-6-(3-cyano-pyrrolo[1,2-b]pyridazin-7-yl)-N-((R)-2-fluoro-3-hydroxy-3-methylbutyl) nicotinamide] | 453 | – | 3 | – |
| CNC(=O)O[C@@H]1CCC[C@H](Nc2cc(-c3ccc4cc(C#N)cnn34)ncc2C(=O)NC[C@@H](F)C(C)(C)O)C1 [Example 748, (1R,3S)-3-((2-(3-cyano-pyrrolo[1,2-b]pyridazin-7-yl)-5-(((R)-2-fluoro-3-hydroxy-3-methylbutyl)carbamoyl)pyridin-4-yl)amino)cyclohexyl methylcarbamate] | 38 | < 1 | – | – |
| CC(C)(O)[C@H](F)CNC(=O)c1cnc(-c2ccc3cc(C#N)cnn23)cc1N[C@H]1CCCNC1 [Example 258, 6-(3-cyanopyrrolo[1,2-b]pyridazin-7-yl)-N-((R)-2-fluoro-3-hydroxy-3-methylbutyl)-4-(((S)-piperidin-3-yl)amino)nicotinamide] | 83 | – | 1 | – |
| CC(=O)NC12CC(Nc3cc(-c4ccc5cc(C#N)cnn45)ncc3C(=O)NC3CCC(C(=O)N4CCOCC4)CC3)(C1)C2 (stereo not shown) [Example 477, 4-((3-acetamido-bicyclo[1.1.1]pentan-1-yl)amino)-6-(3-cyano-pyrrolo[1,2-b]pyridazin-7-yl)-N-((1r,4r)-4-(morpholine-4-carbonyl)cyclohexyl) nicotinamide] | 98 | 1 | – | – |
| CN(C)C(=O)CCNC(=O)c1cnc(-c2ccc3cc(C#N)cnn23)cc1NC12CCC(O)(CC1)CC2 [Example 804, 6-(3-cyanopyrrolo[1,2-b]pyridazin-7-yl)-N-(3-(dimethylamino)-3-oxo-propyl)-4-((4-hydroxy-bicyclo[2.2.2]octan-1-yl)amino)nicotinamide] | – | – | < 1 | 48 |
| CC(C)(O)[C@H](F)CNC(=O)c1cnc(-c2ccc3cc(C#N)cnn23)cc1Nc1ccc(-c2ncc[nH]2)cc1 [Example 230, (R)-4-((4-(1H-imidazol-2-yl)phenyl)amino)-6-(3-cyanopyrrolo[1,2-b]pyridazin-7-yl)-N-(2-fluoro-3-hydroxy-3-methylbutyl)nicotinamide] | 58 | – | < 1 | – |
| Cc1ncc(C2CCC(Nc3cc(-c4ccc5cc(C#N)cnn45)ncc3C(=O)NC[C@@H](F)C(C)(C)O)CC2)o1 (stereo partly drawn) [Example 644, (R)-6-(3-cyanopyrrolo[1,2-b]pyridazin-7-yl)-N-(2-fluoro-3-hydroxy-3-methylbutyl)-4-((4-(2-methyloxazol-5-yl)cyclo-hexyl)amino)nicotinamide] | 36 | 1 | – | – |
| CC1(F)CN(C(=O)CNC(=O)c2cnc(-c3ccc4cc(C#N)cnn34)cc2NC23CCC(O)(CC2)CC3)C1 [Example 797, 6-(3-cyanopyrrolo[1,2-b]pyridazin-7-yl)-N-(2-(3-fluoro-3-methyl-azetidin-1-yl)-2-oxoethyl)-4-((4-hydroxybicyclo[2.2.2]octan-1-yl)amino) nicotinamide] | – | – | 1 | 38 |
| CC(C)(O)[C@H](F)CNC(=O)c1cnc(-c2ccc3cc(C#N)cnn23)cc1N[C@H]1C[C@@H]2CC[C@H]1C2 [Example 101, 4-(((1S,2S,4R)-bicyclo[2.2.1]heptan-2-yl)amino)-6-(3-cyanopyrrolo[1,2-b]pyridazin-7-yl)-N-((R)-2-fluoro-3-hydroxy-3-methylbutyl) nicotinamide] | 82 | – | < 1 | – |
| CC(C)Nc1cc(-c2ccc3cc(C#N)cnn23)ncc1C(=O)N[C@H]1CC[C@H](N)CC1 [Example 12, N-((1r,4r)-4-aminocyclohexyl)-6-(3-cyanopyrrolo[1,2-b]pyridazin-7-yl)-4-(isopropylamino)nicotinamide] | 97 | – | 2 | – |
| CN(C)C(=O)O[C@H]1CC[C@@H](Nc2cc(-c3ccc4cc(C#N)cnn34)ncc2C(=O)NC[C@@H](F)C(C)(C)O)CC1 [Example 167, (1S,4s)-4-((2-(3-cyano-pyrrolo[1,2-b]pyridazin-7-yl)-5-(((R)-2-fluoro-3-hydroxy-3-methylbutyl)carbamoyl)pyridin-4-yl)amino)cyclohexyl dimethylcarbamate] | > 10000 | – | 1000 | – |
| N#Cc1cnn2c(-c3cc(NC45CCC(O)(CC4)CC5)c(C(=O)NCC4(F)CCC4)cn3)ccc2c1 [Example 739, 6-(3-cyanopyrrolo[1,2-b]pyridazin-7-yl)-N-((1-fluorocyclobutyl)methyl)-4-((4-hydroxybicyclo[2.2.2]octan-1-yl)amino) nicotinamide] | 277 | 4 | – | – |
| CC(C)Nc1cc(-c2ccc3cc(C#N)cnn23)ncc1C(=O)NC[C@@H](F)C(C)(C)F [Example 531, (R)-6-(3-cyanopyrrolo[1,2-b]pyridazin-7-yl)-N-(2,3-difluoro-3-methylbutyl)-4-(isopropylamino)nicotinamide] | 34 | < 1 | – | – |
| CC(C)(O)[C@H](F)CNC(=O)c1cnc(-c2ccc3cc(C#N)cnn23)cc1Nc1ccc(-c2cn[nH]c2)cc1 [Example 178, (R)-4-((4-(1H-pyrazol-4-yl)phenyl)amino)-6-(3-cyanopyrrolo[1,2-b]pyridazin-7-yl)-N-(2-fluoro-3-hydroxy-3-methylbutyl)nicotinamide] | 10 | – | < 1 | – |
| CC(C)Nc1cc(-c2ccc3cc(C#N)cnn23)ncc1C(=O)N[C@H]1CCOC[C@@H]1F [Example 322, 6-(3-cyanopyrrolo[1,2-b]pyridazin-7-yl)-N-((3R,4S)-3-fluorotetrahydro-2H-pyran-4-yl)-4-(isopropylamino) nicotinamide] | 169 | – | 5 | – |
| CC(C)OC(=O)NC[C@H]1C[C@H](Nc2cc(-c3ccc4cc(C#N)cnn34)ncc2C(=O)NC[C@@H](F)C(C)(C)O)C1 [Example 539, isopropyl (((1R,3r)-3-((2-(3-cyanopyrrolo[1,2-b]pyridazin-7-yl)-5-(((R)-2-fluoro-3-hydroxy-3-methylbutyl)carbamoyl)pyridin-4-yl)amino)cyclo-butyl)methyl)carbamate] | 12 | < 1 | – | – |
| CC(C)Nc1cc(-c2ccc3cc(C#N)cnn23)ncc1C(=O)N[C@H]1CCOC1 [Example 36, (S)-6-(3-cyanopyrrolo[1,2-b]pyridazin-7-yl)-4-(isopropylamino)-N-(tetrahydrofuran-3-yl) nicotinamide] | 221 | – | 15 | – |
| CC(C)(O)[C@H](F)CNC(=O)c1cnc(-c2ccc3cc(C#N)cnn23)cc1NC1CCS(=O)(=O)C1 (stereo partly drawn) [Example 76, 6-(3-cyanopyrrolo[1,2-b]pyridazin-7-yl)-4-((1,1-dioxidotetrahydrothiophen-3-yl)amino)-N-((R)-2-fluoro-3-hydroxy-3-methylbutyl)nicotinamide] | 348 | – | 1 | – |
| COCCn1cc(Nc2cc(-c3ccc4cc(C#N)cnn34)ncc2C(=O)NC[C@@H](F)C(C)(C)O)cn1 [Example 119, (R)-6-(3-cyanopyrrolo[1,2-b]pyridazin-7-yl)-N-(2-fluoro-3-hydroxy-3-methylbutyl)-4-((1-(2-methoxyethyl)-1H-pyrazol-4-yl)amino) nicotinamide] | 32 | – | < 1 | – |
| CC(C)(O)[C@H](F)CNC(=O)c1cnc(-c2ccc3cc(C#N)cnn23)cc1N[C@@H]1CC[C@H](N)C1 [Example 309, 4-(((1R,3S)-3-aminocyclopentyl)amino)-6-(3-cyanopyrrolo[1,2-b]pyridazin-7-yl)-N-((R)-2-fluoro-3-hydroxy-3-methylbutyl)nicotinamide] | 623 | – | 2 | – |
| CC(C)(N)CCNC(=O)c1cnc(-c2ccc3cc(C#N)cnn23)cc1NC12CCC(O)(CC1)CC2 [Example 345, N-(3-amino-3-methylbutyl)-6-(3-cyanopyrrolo[1,2-b]pyridazin-7-yl)-4-((4-hydroxybicyclo[2.2.2]octan-1-yl)amino)nicotinamide] | 116 | – | 1 | – |
